Measured values published in publication PMC10974276, “Physiological Functions of the Cello-Oligosaccharides Binding CebE in the Pathogenic Streptomyces sp. AMCC400023” (Microorganisms, 2024).
pKd: −log10 of the molar value.

Experiments:
CebE^7671 = biological target: T1, CebE^7671; experiment: microscale thermophoresis; format: binding, Streptomyces sp. AMCC400023; details: 25 °C; protein 800 nM, dye-labelled; ligand series from 270 mM
T1 construct: N-terminal His tag (pET28a); E. coli BL21(C43); Ni-NTA

CebE^5601 = biological target: T2, CebE^5601; experiment: microscale thermophoresis; format: binding, Streptomyces sp. AMCC400023; details: 25 °C; protein 800 nM, dye-labelled; ligand series from 100 µM
T2 construct: N-terminal His tag (pET28a); E. coli BL21(C43); Ni-NTA; labelled with red fluorescent dye

Row | Structure (SMILES) | pKd (CebE^7671) | pKd (CebE^5601)
1 | OC[C@H]1O[C@@H](O[C@H]2[C@H](O)[C@@H](O)C(O)O[C@@H]2CO)[C@H](O)[C@@H](O)[C@@H]1O (stereo partly shown) [cellobiose] | 2.89 | 6.01
2 | OC[C@H]1O[C@@H](O[C@H]2[C@H](O)[C@@H](O)[C@H](O[C@H]3[C@H](O)[C@@H](O)C(O)O[C@@H]3CO)O[C@@H]2CO)[C@H](O)[C@@H](O)[C@@H]1O (stereo partly shown) [cellotriose] | 2.57 | 5.79
